Measured values as given in article PMC7180830, “Scaffold Hopping in Discovery of HIV-1 Non-Nucleoside Reverse Transcriptase Inhibitors: From CH(CN)-DABOs to CH(CN)-DAPYs” (Molecules, 2020).
Read-outs that look alike come from different tables or passages of the source.

Experiments:
[1] = tested on: HIV-1 E138K mutant strain; assay: Anti-HIV assay against E138K mutant strain in MT-4 cells; assay type: cell-based; conditions: Human immunodeficiency virus 1, MT4, read-out: EC50 E138K
Method: (§2) Evaluation of the antiviral activity of the compounds against HIV in MT-4 cells was performed using the MTT assay as previously described [24, 25]. […] Prior to use in our assays, every freshly grown virus stock was the subject of a genotypic analysis. In addition to the genotypic analysis, every stock was subject to a phenotypic analysis using a panel of relevant reference compounds in MT-4 cells. […] Stock solutions (10× final concentration) of test compounds were added in 25 μL volumes to two series of triplicate wells so as to allow simultaneous evaluation of their effects on mock- and HIV-infected cells at the beginning of each experiment. Serial 5-fold dilutions of test compounds were made directly in flat-bottomed 96-well microtiter trays using a Biomek 3000 robot (Beckman instruments, Fullerton, CA). Untreated HIV- and mock-infected cell samples were included as controls. HIV stock (50 μL) at 100–300 CCID50 (50% cell culture infectious doses) and culture medium (final 200 μL volume per well) were added to either the infected or mock-infected wells of the microtiter tray. Mock-infected cells were used to evaluate the effects of test compounds on uninfected cells in order to assess the cytotoxicity of the test compounds. Exponentially growing MT-4 cells were centrifuged for 5 min at 220× g and the supernatant was discarded. The MT-4 cells were resuspended at 6 × 10^5 cells/mL and 50 μL volumes were transferred to the microtiter tray wells. Five days after infection, the viability of mock- and HIV-infected cells was examined spectrophotometrically using the MTT assay. The MTT assay is based on the reduction of yellow colored 3-(4,5-dimethylthiazol-2-yl)-2,5-diphenyltetrazolium bromide (MTT) (Acros Organics, Geel, Belgium) by mitochondrial dehydrogenase activity in metabolically active cells to a blue-purple formazan that can be measured spectrophotometrically. The absorbances were read in an eight-channel computer-controlled photometer (Infinite M1000, Tecan, Männedorf, Switzerland) at two wavelengths (540 and 690 nm). All data were calculated using the median absorbance value of three wells.

WT HIV-1 RT = molecular target: T1, WT HIV-1 RT (Human immunodeficiency virus type 1 group M subtype B, UniProt P03366); assay: Reverse transcriptase assay (EnzCheck kit, PicoGreen); assay type: biochemical; conditions: recombinant wild type p66/p51 HIV-1 RT
T1 construct: Recombinant wild type p66/p51 HIV-1 RT; made in house
Method: The RT assay was performed with the EnzCheck Reverse Transcriptase Assay kit (Molecular Probes, Invitrogen), as described by the Manufacturer. The assay is based on the dsDNA quantitation reagent PicoGreen. […] This condition is met in the assay. A poly(rA) template of approximately 350 bases long and an oligo (dT)16 primer are annealed in a molar ratio of 1:1.2 (60 min at room temperature). Then, 52 ng of the RNA/DNA is brought into each well of a 96-well plate in a volume of 20 μL polymerization buffer (60 mM Tris-HCl, 60 mM KCl, 8 mM MgCl2, 13 mM DTT, 100 μM dTTP, pH 8.1). Then, 5 μL of RT enzyme solution, diluted to a suitable concentration in enzyme dilution buffer (50 mM Tris-HCl, 20% glycerol, 2 mM DTT, pH 7.6), is added. The reactions are incubated at 25 °C for 40 min and then stopped by the addition of EDTA (15 mM fc). Heteroduplexes are then detected by addition of PicoGreen. Signals are read using an excitation wavelength of 490 nm and emission detection at 523 nm using a spectrofluorometer (Safire 2, Tecan). To test the activity of compounds against RT, 1 μL of compound in DMSO was added to each well before the addition of RT enzyme solution. Control wells without compound contained the same amount of DMSO. Results are expressed as relative fluorescence, i.e., the fluorescence signal of the reaction mix with compound divided by the signal of the same reaction mix without compound.

HIV-1 IIIB = assay: Anti-HIV assay against wild-type HIV-1 (IIIB) in MT-4 cells, MTT method; assay type: cell-based; conditions: for SI (selectivity index, ratio CC50/EC50 (WT)): CC50/EC50 WT HIV-1 IIIB
Method: (§1) Untreated HIV- and mock-infected cell samples were included as controls. […] Five days after infection, the viability of mock- and HIV-infected cells was examined spectrophotometrically using the MTT assay. […] All data were calculated using the median absorbance value of three wells.

[2] = tested on: HIV-1 Y181C mutant strain; assay: Anti-HIV assay against Y181C mutant strain in MT-4 cells; assay type: cell-based; conditions: Human immunodeficiency virus 1, MT4, read-out: EC50 Y181C
Method: as §2

[3] = tested on: HIV-1 L100I mutant strain; assay: Anti-HIV assay against L100I mutant strain in MT-4 cells; assay type: cell-based; conditions: Human immunodeficiency virus 1, MT4, read-out: EC50 L100I
Method: as §2

[4] = tested on: HIV-1 F227L + V106A mutant strain; assay: Anti-HIV assay against double mutant F227L + V106A in MT-4 cells; assay type: cell-based; conditions: Human immunodeficiency virus 1, MT4, read-out: EC50 F227L + V106A
Method: as §2

[5] = tested on: HIV-1 K103N + Y181C mutant strain; assay: Anti-HIV assay against double mutant K103N + Y181C in MT-4 cells; assay type: cell-based; conditions: Human immunodeficiency virus 1, MT4, read-out: EC50 K103N + Y181C
Method: as §2

[6] = Cytotoxicity in mock-infected MT-4 cells, MTT method; conditions: human, mock-infected (uninfected) MT-4 cells
Method: as §1

[7] = tested on: HIV-1 K103N mutant strain; assay: Anti-HIV assay against K103N mutant strain in MT-4 cells; assay type: cell-based; conditions: Human immunodeficiency virus 1, MT4, read-out: EC50 K103N
Method: as §2

[8] = Human immunodeficiency virus 1, IIIB, MT4, read-out: EC50 HIV-1 IIIB
[9] = Human immunodeficiency virus 1, MT4, wild-type HIV-1 IIIB, MT-4 cells, protection against HIV-induced cytopathogenicity, read-out: EC50 HIV-1 IIIB

| Structure (SMILES) | EC50 [1] [nM] | IC50 (WT HIV-1 RT) [nM] | EC50 (HIV-1 IIIB; [8]) [nM] | EC50 [2] [nM] | EC50 [3] [nM] | EC50 [4] [nM] | EC50 [5] [nM] | CC50 at 5 days [6] [nM] | EC50 [7] [nM] | melting point [°C] | SI (selectivity index, ratio CC50/EC50 (WT)) (HIV-1 IIIB; MT-4 cells) | fold increase of antiviral activity compared with A2 (HIV-1 IIIB; WT HIV-1 IIIB, relative to A2) [fold] | EC50 (HIV-1 IIIB; [9]) [nM] |
| --- | --- | --- | --- | --- | --- | --- | --- | --- | --- | --- | --- | --- | --- |
| Cc1cnc(Nc2ccc(C#N)cc2)nc1C(C#N)c1ccc(C#N)cc1F (stereo not shown) [Compound B2, 4-(4-(cyano-(2-fluoro-4-cyanophenyl)methyl)-5 methylpyrimidin-2-ylamino)benzonitrile] | 970 ± 140 | 220 ± 50 | 40 ± 20 | 1590 ± 180 | 3040 ± 1130 | > 20600 | > 20600 | 20600 ± 3600 | 1070 ± 370 |  |  |  |  |
| N#Cc1ccc(Nc2nccc(C(C#N)c3c(Cl)cc(C#N)cc3Cl)n2)cc1 (stereo not shown) [Compound A10, 4-(4-(cyano-(2,6-dichloro-4-cyanophenyl)methyl)-pyrimidin-2-ylamino)benzonitrile] | 2190 ± 220 |  | 82 ± 20 | 2200 ± 270 | 2320 ± 480 | > 4490 | > 4490 | 4500 ± 1300 | 1780 ± 120 | 152.5 to 153.2 | 55 |  |  |
| Cc1cc(C#N)ccc1C(C#N)c1ccnc(Nc2ccc(C#N)cc2)n1 (stereo not shown) [Compound A3, 4-(4-(cyano-(2-methyl-4-cyanophenyl)methyl)-pyrimidin-2-ylamino)benzonitrile] | 3040 ± 390 |  | 69 ± 8 | 1710 ± 130 | 5030 ± 550 | > 10900 | > 10900 | 10900 ± 3600 | 1960 ± 450 | 213.5 to 214.6 | 157 | 17 |  |
| Cc1cc(C#N)cc(C)c1Oc1nc(Nc2ccc(C#N)cc2)nc(N)c1Br [Etravirine, etravirine, reference compound] | 8 ± 4 |  | 5 ± 1 | 17 ± 3 | 8 ± 2 | 14 ± 5 | 40 ± 10 | > 4600 | 3 ± 1 |  |  |  |  |
| Cc1cc(/C=C/C#N)cc(C)c1Nc1ccnc(Nc2ccc(C#N)cc2)n1 [Rilpivirine, rilpivirine, reference compound] | 3 ± 1 |  | 1.6 ± 0.3 | 3 ± 1 | 2 ± 1 | 40 ± 10 | 9 ± 2 | 5900 ± 300 | 1 ± 0.2 |  | 3747 |  |  |
| Cc1c(C(C#N)c2ccnc(Nc3ccc(C#N)cc3)n2)ccc(C#N)c1Cl (stereo not shown) [Compound A11, 4-(4-(cyano-(2-methyl-3-chloro-4-cyanophenyl)methyl)-pyrimidin-2-ylamino)benzonitrile] | > 6110 |  | 300 ± 30 | > 6110 | 2320 ± 480 | > 6110 | > 6110 | 6100 ± 500 | > 6110 |  |  |  |  |
| N#Cc1ccc(Nc2nccc(C(C#N)c3ccc(C#N)cc3C(F)(F)F)n2)cc1 (stereo not shown) [Compound A6, 4-(4-(cyano-(2-trifluoromethyl-4-cyanophenyl)methyl)-pyrimidin-2-ylamino)benzonitrile] | > 6230 |  | 490 ± 300 | 2290 ± 20 | > 6230 | > 6230 | > 6230 | 6200 ± 1400 | > 6230 | 236.7 to 237.5 | 13 |  |  |
| N#Cc1ccc(Nc2nccc(C(C#N)c3ccc(C#N)cc3F)n2)cc1 (stereo not shown) [Compound A7, 4-(4-(cyano-(2-fluoro-4-cyanophenyl)methyl)-pyrimidin-2-ylamino)benzonitrile] | > 10400 |  | 240 ± 160 | > 10400 | > 10400 | > 10400 | > 10400 | 10300 ± 4500 | > 10400 | 165.7 to 166.5 | 43 |  |  |
| N#Cc1ccc(Nc2nccc(C(C#N)c3ccc(C#N)cc3)n2)cc1 (stereo not shown) [Compound A1, 4-(4-(cyano-(4-cyanophenyl)methyl)-pyrimidin-2-ylamino)benzonitrile] | > 32700 |  | 3270 ± 2250 | 11300 ± 1510 | ≥ 12300 | > 32700 | > 32700 | 32700 ± 9900 | > 32700 |  |  |  |  |
| Cc1cc(C(C#N)c2ccnc(Nc3ccc(C#N)cc3)n2)ccc1C#N (stereo not shown) [Compound A2, 4-(4-(cyano-(3-methyl-4-cyanophenyl)methyl)-pyrimidin-2-ylamino)benzonitrile] | > 16100 |  | 1170 ± 340 | > 16100 | > 16100 | > 16100 | > 16100 | 16100 ± 3600 | > 16100 | 223.7 to 224.9 | 14 |  |  |
| Cc1ccnc2c1NC(=O)c1cccnc1N2C1CC1 [Nevirapine, nevirapine, reference compound] | 200 ± 150 |  |  |  | 980 ± 390 | ≥ 4280 | > 15000 | > 15000 | 4700 ± 630 |  |  |  | 200 ± 100 |
| N#Cc1ccc(Nc2nccc(C(C#N)c3ccc(C#N)cc3Cl)n2)cc1 (stereo not shown) [Compound A8, 4-(4-(cyano-(2-chloro-4-cyanophenyl)methyl)-pyrimidin-2-ylamino)benzonitrile] | 2200 ± 350 |  | 63 ± 9 | 1870 ± 210 | ≥ 2370 | > 4590 | > 4590 | 4600 ± 2700 | 2130 ± 220 |  |  |  |  |
| O=C1Nc2ccc(Cl)cc2[C@@](C#CC2CC2)(C(F)(F)F)O1 [Efavirenz, efavirenz, reference compound] | 5 ± 2 |  |  | 6 ± 1 | 40 ± 8 | 280 ± 70 | 240 ± 60 | > 6300 | 80 ± 10 |  | >3939 |  | 3 ± 1 |
| COc1cc(C(C#N)c2ccnc(Nc3ccc(C#N)cc3)n2)ccc1C#N (stereo not shown) [Compound A4, 4-(4-(cyano-(3-methoxy-4-cyanophenyl)methyl)-pyrimidin-2-ylamino)benzonitrile] | ≥ 56600 |  | 11700 ± 12100 | ≥ 48100 | ≥ 61400 | ≥ 61000 | ≥ 65700 | 78400 ± 10400 | ≥ 62200 | 156.2 to 157 | 7 |  |  |
| N#Cc1ccc(Nc2nccc(C(C#N)c3ccc(C#N)cc3Br)n2)cc1 (stereo not shown) [Compound A9, 4-(4-(cyano-(2-bromo-4-cyanophenyl)methyl)-pyrimidin-2-ylamino)benzonitrile] | 2310 ± 20 |  | 79 ± 20 | 1880 ± 420 | > 3350 | > 3350 | > 3350 | 3400 ± 300 | ≥ 1880 | 223.5 to 224.7 | 42 |  |  |
| Cc1cc(C#N)c(Br)cc1C(C#N)c1ccnc(Nc2ccc(C#N)cc2)n1 (stereo not shown) [Compound A12, 4-(4-(cyano-(2-methyl-5-bromo-4-cyanophenyl)methyl)-pyrimidin-2-ylamino)benzonitrile] | 3730 ± 590 |  | 240 ± 40 | 2780 ± 360 | > 13200 | > 13200 | > 13200 | 13200 ± 1600 | 2520 ± 420 |  |  |  |  |
